According to ChEMBL document CHEMBL4052642, “4-Methyl-6,7-dihydro-4H-triazolo[4,5-c]pyridine-Based P2X7 Receptor Antagonists: Optimization of Pharmacokinetic Properties Leading to the Identification of a Clinical Candidate” (J Med Chem, 2017):
≈ marks a conversion by molar mass, not a printed value.

Columns and labels:
[1] = Protein binding in rat plasma at 1 uM after 6 hrs by equilibrium dialysis method; type: ADME, cell-free; details: read-out: PPB (converted)
[2] = target: Cytochrome P450 2C19 (Homo sapiens, UniProt P33261); assay: Inhibition of CYP2C19 in human liver microsomes using S-mephenytoin as substrate after 15 mins by LC-MS/MS analysis; type: ADME
[3] = target: Cytochrome P450 2C9 (Homo sapiens, UniProt P11712); assay: Inhibition of CYP2C9 in human liver microsomes using diclofenac as substrate after 15 mins by LC-MS/MS analysis; type: ADME
[4] = target: Cytochrome P450 2D6 (Homo sapiens, UniProt P10635); assay: Inhibition of CYP2D6 in human liver microsomes using dextromethorphan as substrate after 15 mins by LC-MS/MS analysis; type: ADME
[5] = target: T1, Cytochrome P450 1A2 (Homo sapiens, UniProt P05177); assay: Inhibition of CYP1A2 in human liver microsomes using phenacetin as substrate after 15 mins by LC-MS/MS analysis; type: ADME
T1 sequence (P05177 whole entry): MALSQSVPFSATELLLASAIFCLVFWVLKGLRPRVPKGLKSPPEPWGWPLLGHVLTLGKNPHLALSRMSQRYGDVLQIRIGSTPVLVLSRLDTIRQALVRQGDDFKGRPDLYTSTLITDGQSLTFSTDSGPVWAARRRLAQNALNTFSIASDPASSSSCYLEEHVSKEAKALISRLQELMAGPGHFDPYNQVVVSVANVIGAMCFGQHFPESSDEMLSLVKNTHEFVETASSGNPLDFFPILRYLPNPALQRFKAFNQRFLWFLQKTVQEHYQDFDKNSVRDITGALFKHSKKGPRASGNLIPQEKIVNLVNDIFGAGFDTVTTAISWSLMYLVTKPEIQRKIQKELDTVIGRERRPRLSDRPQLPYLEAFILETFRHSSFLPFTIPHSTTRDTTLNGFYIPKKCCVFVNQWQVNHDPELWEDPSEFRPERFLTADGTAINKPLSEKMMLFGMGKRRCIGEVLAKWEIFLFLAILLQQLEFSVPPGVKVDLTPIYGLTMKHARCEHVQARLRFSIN

[6] = target: Cytochrome P450 3A4 (Homo sapiens, UniProt P08684); assay: Inhibition of CYP3A4 in human liver microsomes using midazolam as substrate after 15 mins by LC-MS/MS analysis; type: ADME
[7] = Solubility of compound in phosphate buffer at pH 2 after 3 days; type: physicochemical
[8] = target: T2, Cytochrome P450 2C8 (Homo sapiens, UniProt P10632); assay: Inhibition of CYP2C8 in human liver microsomes using paclitaxel as substrate after 15 mins by LC-MS/MS analysis; type: ADME
T2 sequence (P10632 whole entry): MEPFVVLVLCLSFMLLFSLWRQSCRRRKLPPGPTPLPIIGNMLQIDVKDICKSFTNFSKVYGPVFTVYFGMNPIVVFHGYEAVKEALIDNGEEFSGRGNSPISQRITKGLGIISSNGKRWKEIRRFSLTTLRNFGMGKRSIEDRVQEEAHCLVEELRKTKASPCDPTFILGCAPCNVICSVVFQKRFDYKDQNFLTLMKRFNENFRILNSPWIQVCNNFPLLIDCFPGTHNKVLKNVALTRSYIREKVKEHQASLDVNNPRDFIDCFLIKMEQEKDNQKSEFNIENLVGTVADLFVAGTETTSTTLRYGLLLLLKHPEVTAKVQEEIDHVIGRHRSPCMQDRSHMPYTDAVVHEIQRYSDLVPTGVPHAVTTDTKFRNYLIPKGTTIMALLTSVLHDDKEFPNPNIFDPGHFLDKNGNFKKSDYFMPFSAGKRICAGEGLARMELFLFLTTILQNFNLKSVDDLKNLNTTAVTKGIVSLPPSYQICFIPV

[9] = Protein binding in mouse plasma at 1 uM after 6 hrs by equilibrium dialysis method; type: ADME, cell-free; details: read-out: PPB (converted)
[10] = target: Voltage-gated inwardly rectifying potassium channel KCNH2 (Homo sapiens, UniProt Q12809); assay: Inhibition of [3H]-dofetilide binding to human ERG expressed in HEK293 cells; type: cell-based
[11] = Protein binding in human plasma at 1 uM after 6 hrs by equilibrium dialysis method; type: ADME, cell-free; details: read-out: PPB (converted)
[12] = Solubility of compound in phosphate buffer at pH 7 after 3 days; type: physicochemical

Sequence of Cytochrome P450 2C19 (P33261 whole entry): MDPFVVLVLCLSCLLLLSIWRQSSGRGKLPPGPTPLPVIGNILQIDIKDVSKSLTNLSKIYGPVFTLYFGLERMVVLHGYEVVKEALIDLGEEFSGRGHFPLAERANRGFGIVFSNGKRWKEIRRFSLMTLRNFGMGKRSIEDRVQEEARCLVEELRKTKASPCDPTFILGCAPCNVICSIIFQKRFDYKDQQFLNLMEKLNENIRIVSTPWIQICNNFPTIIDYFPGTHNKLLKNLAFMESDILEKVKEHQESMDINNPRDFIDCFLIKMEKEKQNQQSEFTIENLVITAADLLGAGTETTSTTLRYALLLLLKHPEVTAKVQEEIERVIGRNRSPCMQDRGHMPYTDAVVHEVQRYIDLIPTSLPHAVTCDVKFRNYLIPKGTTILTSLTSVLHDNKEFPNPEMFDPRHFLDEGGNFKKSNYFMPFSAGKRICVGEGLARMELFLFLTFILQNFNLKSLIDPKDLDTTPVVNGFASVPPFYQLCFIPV
Sequence of Voltage-gated inwardly rectifying potassium channel KCNH2 (Q12809 whole entry): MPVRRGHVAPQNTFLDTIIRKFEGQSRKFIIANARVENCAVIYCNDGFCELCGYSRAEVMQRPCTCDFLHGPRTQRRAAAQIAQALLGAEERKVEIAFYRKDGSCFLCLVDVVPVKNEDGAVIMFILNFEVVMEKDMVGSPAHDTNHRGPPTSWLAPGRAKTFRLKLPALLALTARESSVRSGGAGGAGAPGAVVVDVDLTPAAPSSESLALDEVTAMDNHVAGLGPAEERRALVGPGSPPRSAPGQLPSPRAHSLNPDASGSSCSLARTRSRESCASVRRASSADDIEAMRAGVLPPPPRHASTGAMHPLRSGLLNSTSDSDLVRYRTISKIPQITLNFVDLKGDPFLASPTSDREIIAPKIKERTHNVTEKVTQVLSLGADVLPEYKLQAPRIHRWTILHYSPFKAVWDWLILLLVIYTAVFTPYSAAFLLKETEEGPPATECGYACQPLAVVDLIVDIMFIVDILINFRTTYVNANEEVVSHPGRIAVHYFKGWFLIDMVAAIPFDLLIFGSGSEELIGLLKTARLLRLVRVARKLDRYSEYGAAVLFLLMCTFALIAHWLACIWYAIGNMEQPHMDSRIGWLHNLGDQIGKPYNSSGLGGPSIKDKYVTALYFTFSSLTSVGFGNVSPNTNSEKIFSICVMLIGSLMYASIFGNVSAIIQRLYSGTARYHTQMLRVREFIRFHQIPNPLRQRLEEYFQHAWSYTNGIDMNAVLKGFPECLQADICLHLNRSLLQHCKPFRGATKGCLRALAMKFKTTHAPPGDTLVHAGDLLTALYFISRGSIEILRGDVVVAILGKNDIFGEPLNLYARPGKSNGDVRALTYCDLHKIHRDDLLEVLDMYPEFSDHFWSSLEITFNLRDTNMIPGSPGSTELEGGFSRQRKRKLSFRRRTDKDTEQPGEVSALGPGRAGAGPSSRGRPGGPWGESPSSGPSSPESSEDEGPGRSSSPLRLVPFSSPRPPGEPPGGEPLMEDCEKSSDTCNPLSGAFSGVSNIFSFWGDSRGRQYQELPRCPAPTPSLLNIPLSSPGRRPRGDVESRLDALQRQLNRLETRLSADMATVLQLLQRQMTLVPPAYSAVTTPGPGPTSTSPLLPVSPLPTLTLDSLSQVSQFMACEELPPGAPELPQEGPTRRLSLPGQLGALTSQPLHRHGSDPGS
Sequence of Cytochrome P450 2D6 (P10635 whole entry): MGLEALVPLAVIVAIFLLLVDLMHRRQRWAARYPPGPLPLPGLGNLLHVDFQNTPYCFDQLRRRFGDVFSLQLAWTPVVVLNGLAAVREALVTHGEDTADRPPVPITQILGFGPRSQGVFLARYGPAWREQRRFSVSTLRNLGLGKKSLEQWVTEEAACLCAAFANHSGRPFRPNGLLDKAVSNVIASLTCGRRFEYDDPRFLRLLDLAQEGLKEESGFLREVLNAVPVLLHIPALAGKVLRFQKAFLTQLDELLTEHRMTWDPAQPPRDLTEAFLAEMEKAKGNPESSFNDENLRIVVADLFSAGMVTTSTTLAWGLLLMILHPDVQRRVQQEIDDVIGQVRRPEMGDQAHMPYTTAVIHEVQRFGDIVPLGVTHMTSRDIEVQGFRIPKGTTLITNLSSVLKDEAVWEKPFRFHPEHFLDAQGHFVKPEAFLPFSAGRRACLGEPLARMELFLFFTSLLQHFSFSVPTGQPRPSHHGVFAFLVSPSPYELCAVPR
Sequence of Cytochrome P450 3A4 (P08684 whole entry): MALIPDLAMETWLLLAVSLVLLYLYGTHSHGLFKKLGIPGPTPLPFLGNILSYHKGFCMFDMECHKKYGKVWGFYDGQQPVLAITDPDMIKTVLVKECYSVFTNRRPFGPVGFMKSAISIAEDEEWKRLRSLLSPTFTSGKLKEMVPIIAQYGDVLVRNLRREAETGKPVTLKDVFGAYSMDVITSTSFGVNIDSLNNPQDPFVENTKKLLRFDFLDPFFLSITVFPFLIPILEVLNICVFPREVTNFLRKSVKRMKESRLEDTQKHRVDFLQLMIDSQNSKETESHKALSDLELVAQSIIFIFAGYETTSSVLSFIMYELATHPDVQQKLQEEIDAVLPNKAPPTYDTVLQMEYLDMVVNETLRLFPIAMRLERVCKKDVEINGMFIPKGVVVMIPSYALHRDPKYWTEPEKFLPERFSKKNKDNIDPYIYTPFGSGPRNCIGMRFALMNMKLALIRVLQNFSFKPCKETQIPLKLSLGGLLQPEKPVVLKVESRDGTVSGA
Sequence of Cytochrome P450 2C9 (P11712 whole entry): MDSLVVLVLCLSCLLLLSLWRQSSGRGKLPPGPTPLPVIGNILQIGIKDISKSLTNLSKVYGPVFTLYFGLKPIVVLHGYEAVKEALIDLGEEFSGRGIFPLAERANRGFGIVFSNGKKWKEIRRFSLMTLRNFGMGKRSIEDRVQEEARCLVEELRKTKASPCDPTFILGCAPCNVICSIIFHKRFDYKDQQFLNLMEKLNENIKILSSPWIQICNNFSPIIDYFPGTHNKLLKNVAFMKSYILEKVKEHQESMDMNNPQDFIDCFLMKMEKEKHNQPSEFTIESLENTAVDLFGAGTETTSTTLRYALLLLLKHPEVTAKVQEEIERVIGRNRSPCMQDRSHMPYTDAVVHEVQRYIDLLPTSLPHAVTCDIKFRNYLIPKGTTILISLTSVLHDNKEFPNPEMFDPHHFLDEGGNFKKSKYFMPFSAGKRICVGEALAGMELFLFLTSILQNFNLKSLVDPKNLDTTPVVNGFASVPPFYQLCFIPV

Structure (SMILES): C[C@@H]1c2nnn(-c3cc(F)ccn3)c2CCN1C(=O)c1cccc(C(F)(F)F)c1Cl
- fraction unbound at 6 h, 1 µM [1]: 0.052
- IC50 [2]: 2.1 µM
- IC50 [3]: 2.8 µM
- IC50 [4]: > 10 µM
- IC50 [5]: > 10 µM
- IC50 [6]: > 10 µM
- solubility at 72 h [7]: 4.8 µM (≈ 2.11 µg/mL)
- IC50 [8]: > 10 µM
- fraction unbound at 6 h, 1 µM [9]: 0.042
- IC50 [10]: > 10 µM
- fraction unbound at 6 h, 1 µM [11]: 0.024
- solubility at 72 h [12]: 2.1 µM (≈ 0.924 µg/mL)
